Laboratory results taken from PubChem BioAssay (NCI).
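48-hour exposure; five concentrations; linearly interpolated endpoints. GI50 marks 50% less growth. TGI marks complete inhibition of growth.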

How the values were obtained:
Experiment in all cases: inhibition of tumour cell growth, NCI panel, 48 h
ACHN renal = tested on: ACHN renal
DLD-1 colon = tested on: DLD-1 colon
HCT-116 colon = tested on: HCT-116 colon
LXFL 529 NSCLC = tested on: LXFL 529 NSCLC
OVCAR-3 ovarian = tested on: OVCAR-3 ovarian
SF-268 CNS = tested on: SF-268 CNS
SK-MEL-2 melanoma = tested on: SK-MEL-2 melanoma
SNB-75 CNS = tested on: SNB-75 CNS
A498 renal = tested on: A498 renal
OVCAR-4 ovarian = tested on: OVCAR-4 ovarian

| Compound | TGI (ACHN renal) [µM] | TGI (DLD-1 colon) [µM] | TGI (HCT-116 colon) [µM] | TGI (LXFL 529 NSCLC) [µM] | TGI (OVCAR-3 ovarian) [µM] | TGI (SF-268 CNS) [µM] | TGI (SK-MEL-2 melanoma) [µM] | TGI (SNB-75 CNS) [µM] | GI50 (A498 renal) [µM] | TGI (A498 renal) [µM] | GI50 (ACHN renal) [µM] | GI50 (HCT-116 colon) [µM] | GI50 (OVCAR-3 ovarian) [µM] | GI50 (OVCAR-4 ovarian) [µM] | TGI (OVCAR-4 ovarian) [µM] | GI50 (SF-268 CNS) [µM] | GI50 (SK-MEL-2 melanoma) [µM] | GI50 (SNB-75 CNS) [µM] |
| --- | --- | --- | --- | --- | --- | --- | --- | --- | --- | --- | --- | --- | --- | --- | --- | --- | --- | --- |
| C=CCn1c(=S)sc2c(C(=O)OCC)c3c(C)cc(C)cn3c2c1=O | > 100 | > 100 | > 100 | > 100 | > 100 | > 100 | > 100 | > 100 |  |  |  |  |  |  |  |  |  |  |
| Cc1ccc2nc3ccccc3c(NCc3ccc(Cl)cc3)c2c1 | 11.9 |  | 8.27 |  | 13 | 14.2 | 17.3 | 13.3 | 5.61 | 11.9 | 5.44 | 2.15 | 6.31 | 5.13 | 11.9 | 6.91 | 8.57 | 6.77 |
| O=C(NCCN1CCOCC1)OCc1nc2nc(Cl)nc(N3CCOCC3)c2[nH]1 | > 100 |  | > 100 |  | 7.18 | > 100 | > 100 | > 100 | 1.68 | 6.66 | 0.901 | 2.41 | 1.15 | 9.69 | > 100 | 3.02 | 6.66 | 4.12 |
| C[C@H]1[C@H](C)N1CC(O)Cn1ccnc1[N+](=O)[O-] (some centres not stated) | > 100 |  | > 100 |  | > 100 | > 100 | > 100 | > 100 |  | > 100 |  |  |  |  | > 100 |  |  |  |
| COc1ccc([C@H](CC(=O)O)N2CCN(CCCc3ccc4c(n3)NCCC4)C2=O)cn1 | > 100 |  | > 34.7 |  | > 100 | > 100 | 0.237 | 0.0278 | 0.0116 | 0.0633 | > 52 | 0.202 | > 100 | > 100 | > 100 | 0.754 | 0.0331 | 0.0112 |
| CCCCNNC(=O)c1ccc(Br)cc1 | > 36.1 |  | 13.4 |  | > 50 | > 50 | > 39.9 | > 50 | 0.364 | 3.41 | 2.67 | 1.47 | 5.26 | 4.79 | > 50 | 8.41 | 1.83 | 1.83 |
| CCC(=O)N1C/C(=C/c2ccc(Cl)cc2)C(=O)/C(=C/c2ccc(Cl)cc2)C1 | 1.98 |  | 0.435 |  | 1.75 | 3.16 | 3.94 | 3.1 | 1.5 | 3.04 | 0.745 | 0.179 | 0.622 | 0.836 | 2.86 | 1.17 | 2.01 | 1.37 |
| O=C(CCN1CCCC1)Nc1ccc2c(NCc3ccccc3)c3ccccc3nc2c1 | 2.22 |  | 1.31 |  | 1.97 | 1.85 | 2.08 | 1.7 | 0.406 | 1.9 | 0.465 | 0.309 | 0.495 | 0.381 | 1.63 | 0.457 | 0.598 | 0.398 |
